The text below walks through data of the supplement of paper PMC11061612.

Assay [1] deals with U-698-M. The assay is described as follows: combination Emax (second highest fraction inhibited in the dose matrix, 72 h); higher = more inhibition. The conditions noted are these: B-Cell Non-Hodgkin's Lymphoma, 7x7. The procedure, abridged: (§1)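 Cell lines grown in DMEM/F12 or RPMI with 10% FBS were plated in 1536-well plates and held 24 hours at 37°C, 5% CO2 before 72 hours of exposure to two-drug dose matrices, with DMSO typically at 0.2%. CellTiter-Glo 2.0 luminescence gave viability, which was converted to inhibition. Vehicle wells were set to 0 and blank wells to 1. Combination Emax is the second-highest inhibition in the matrix, and Bliss excess is the observed combination effect minus the expected EA + EB − EA·EB, where EA and EB are the single-agent effects.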

Assay [2] has as its system U-698-M. Briefly: Bliss excess, mean over the matrix (fraction); higher = more synergy. As to conditions: U-[…], B-Cell Non-Hodgkin's Lymphoma, 7x7. The procedure, abridged: as §1
Where [3] appears, read: first compound max 10 µM, partner max 10 µM.
Where [4] appears, read: first compound max 10 µM, partner max 0.3 µM.
The mark [5] stands for this setting: first compound max 10 µM, partner max 1 µM.
[6] abbreviates: first compound max 10 µM, partner max 2 µM.
The mark [7] stands for this setting: first compound max 2 µM, partner max 1 µM.
Setting [8] is: first compound max 1 µM, partner max 10 µM.

Regarding `Cc1cc2ncnn2cc1Nc1ncc2c(n1)n(C1CCOCC1)c(=O)n2C` [AZD7648] + O=C(c1cc(Cc2n[nH]c(=O)c3ccccc23)ccc1F)N1CCN(C(=O)C2CC2)CC1 [Olaparib], in the assay with U-698-M [1] (setting [3]), the “combination Emax” value was 0.343. Moreover, the Bliss excess in the assay on U-698-M [2] (setting [3]) is -0.0409.

For the compound `C[C@@H](Nc1cc(F)cc(F)c1)c1cc(C(=O)N(C)C)cc2c(=O)cc(N3CCOCC3)oc12` [AZD8186] + C1CN(CCC1(C(=O)N[C@@H](CCO)C2=CC=C(C=C2)Cl)N)C3=NC=NC4=C3C=CN4 [AZD5363], in the assay with U-698-M [1] (setting [3]), the “combination Emax” value turned out to be 0.349. In the assay with U-698-M [2] (setting [3]), the Bliss excess is -0.0592.

For `C[C@@H](Nc1cc(F)cc(F)c1)c1cc(C(=O)N(C)C)cc2c(=O)cc(N3CCOCC3)oc12` [AZD8186] + CC(=O)c1c(C)c2cnc(Nc3ccc(N4CCNCC4)cn3)nc2n(C2CCCC2)c1=O [Palbociclib], the “combination Emax” value in the assay with U-698-M [1] (setting [3]) is 0.499. For the same compound, the Bliss excess in the assay with U-698-M [2] (setting [3]) was -0.0019.

With `NC1(C(=O)N[C@@H](CCO)c2ccc(Cl)cc2)CCN(c2ncnc3[nH]ccc23)CC1` [Capivasertib] + CC(=O)c1c(C)c2cnc(Nc3ccc(N4CCNCC4)cn3)nc2n(C2CCCC2)c1=O [Palbociclib], the “combination Emax” value in the assay with U-698-M [1] (setting [3]) is 0.532. The Bliss excess with U-698-M [2] (setting [3]) was 0.0018.

`NC1(C(=O)N[C@@H](CCO)c2ccc(Cl)cc2)CCN(c2ncnc3[nH]ccc23)CC1` [Capivasertib] + CC(C)n1c(=O)n(C)c2cnc3cc(F)c(-c4ccc(OCCCN5CCCCC5)nc4)cc3c21 [AZD1390]: the “combination Emax” value in the assay on U-698-M [1] (setting [4]) worked out at 0.507. In addition, the Bliss excess in the assay on U-698-M [2] (setting [4]) was determined as 0.0024.

As for `NC1(C(=O)N[C@@H](CCO)c2ccc(Cl)cc2)CCN(c2ncnc3[nH]ccc23)CC1` [Capivasertib] + CCN(CCO)CCCOc1ccc2c(Nc3cc(CC(=O)Nc4cccc(F)c4)[nH]n3)ncnc2c1 [AZD2811], the “combination Emax” value with U-698-M [1] (setting [5]) is 0.5. Besides, the Bliss excess with U-698-M [2] (setting [5]) was -0.0021.

With `NC1(C(=O)N[C@@H](CCO)c2ccc(Cl)cc2)CCN(c2ncnc3[nH]ccc23)CC1` [Capivasertib] + COc1nnc2ccc(N3CCC(c4ccc(OCCN5CCN(C)C(=O)[C@H]5C)cc4)CC3)nn12 [AZD5153], the “combination Emax” value in the assay on U-698-M [1] (setting [5]) was 0.768. Further, the Bliss excess in the assay on U-698-M [2] (setting [5]) was -0.0646.

For the compound `NC1(C(=O)N[C@@H](CCO)c2ccc(Cl)cc2)CCN(c2ncnc3[nH]ccc23)CC1` [Capivasertib] + C[C@@H]1COCCN1C2=NC(=NC(=C2)C3(CC3)[S@](=N)(=O)C)C4=C5C=CNC5=NC=C4 [AZD6738], the “combination Emax” value with U-698-M [1] (setting [3]) stood at 0.909. For the same compound, the Bliss excess with U-698-M [2] (setting [3]) was -0.0275.

With `NC1(C(=O)N[C@@H](CCO)c2ccc(Cl)cc2)CCN(c2ncnc3[nH]ccc23)CC1` [Capivasertib] + Cn1cnc2c(F)c(Nc3ccc(Br)cc3Cl)c(C(=O)NOCCO)cc21 [Selumetinib], the “combination Emax” value with U-698-M [1] (setting [3]) was 0.45. Also, the Bliss excess in the assay with U-698-M [2] (setting [3]) is -0.0253.

As for `C[C@@H](Oc1cc(-c2cnn(C3CCNCC3)c2)cnc1N)c1c(Cl)ccc(F)c1Cl` [Crizotinib] + CC1=C(C(=CC=C1)Cl)NC(=O)C2=CN=C(S2)NC3=CC(=NC(=N3)C)N4CCN(CC4)CCO [Dasatinib], the “combination Emax” value in the assay on U-698-M [1] (setting [6]) is 0.861. Further, the Bliss excess in the assay with U-698-M [2] (setting [6]) was -0.0005.

Regarding `C[C@@H](Oc1cc(-c2cnn(C3CCNCC3)c2)cnc1N)c1c(Cl)ccc(F)c1Cl` [Crizotinib] + Cn1cnc2c(F)c(Nc3ccc(Br)cc3Cl)c(C(=O)NOCCO)cc21 [Selumetinib], the “combination Emax” value with U-698-M [1] (setting [3]) was 0.752. Moreover, the Bliss excess in the assay with U-698-M [2] (setting [3]) is -0.0663.

Take `Cc1nc(Nc2ncc(C(=O)Nc3c(C)cccc3Cl)s2)cc(N2CCN(CCO)CC2)n1` [Dasatinib] + CC(=O)Nc1cccc(-n2c(=O)n(C3CC3)c(=O)c3c(Nc4ccc(I)cc4F)n(C)c(=O)c(C)c32)c1 [Trametinib]: the “combination Emax” value in the assay on U-698-M [1] (setting [7]) worked out at 0.432. Further, in the assay on U-698-M [2] (setting [7]), the Bliss excess is -0.0131.

Take `COc1cccc2c1C(=O)c1c(O)c3c(c(O)c1C2=O)C[C@@](O)(C(=O)CO)C[C@@H]3O[C@H]1C[C@H](N)[C@H](O)[C@H](C)O1` [Doxorubicin] + Cc1cc2ncnn2cc1Nc1ncc2c(n1)n(C1CCOCC1)c(=O)n2C [AZD7648]: the “combination Emax” value in the assay on U-698-M [1] (setting [8]) was 0.909. In addition, the Bliss excess in the assay with U-698-M [2] (setting [8]) was 0.084.

In the case of `COc1cc2ncnc(Nc3ccc(F)c(Cl)c3)c2cc1OCCCN1CCOCC1` [Gefitinib] + CC(C)n1c(=O)n(C)c2cnc3cc(F)c(-c4ccc(OCCCN5CCCCC5)nc4)cc3c21 [AZD1390], the “combination Emax” value with U-698-M [1] (setting [4]) came to 0.354. In addition, the Bliss excess in the assay with U-698-M [2] (setting [4]) was -0.0593.

`CS(=O)(=O)CCNCc1ccc(-c2ccc3ncnc(Nc4ccc(OCc5cccc(F)c5)c(Cl)c4)c3c2)o1` [Lapatinib] + C[C@@H](Oc1cc(-c2cnn(C3CCNCC3)c2)cnc1N)c1c(Cl)ccc(F)c1Cl [Crizotinib]: in the assay on U-698-M [1] (setting [3]), the “combination Emax” value worked out at 0.934. For the same compound, in the assay with U-698-M [2] (setting [3]), the Bliss excess was -0.0653.

As to `CS(=O)(=O)CCNCc1ccc(-c2ccc3ncnc(Nc4ccc(OCc5cccc(F)c5)c(Cl)c4)c3c2)o1` [Lapatinib] + Cn1cnc2c(F)c(Nc3ccc(Br)cc3Cl)c(C(=O)NOCCO)cc21 [Selumetinib], the “combination Emax” value in the assay with U-698-M [1] (setting [3]) was 0.585. For the same compound, the Bliss excess with U-698-M [2] (setting [3]) is -0.0215.

With `CS(=O)(=O)CCNCc1ccc(-c2ccc3ncnc(Nc4ccc(OCc5cccc(F)c5)c(Cl)c4)c3c2)o1` [Lapatinib] + NC1(c2ccc(-c3nc4ccn5c(=O)[nH]nc5c4cc3-c3ccccc3)cc2)CCC1 [MK-2206], the “combination Emax” value in the assay on U-698-M [1] (setting [3]) came to 0.905. The Bliss excess in the assay on U-698-M [2] (setting [3]) was determined as 0.0097.

For the compound `O=C(c1cc(Cc2n[nH]c(=O)c3ccccc23)ccc1F)N1CCN(C(=O)C2CC2)CC1` [Olaparib] + CC1(C)CCC(CN2CCN(c3ccc(C(=O)NS(=O)(=O)c4ccc(NCC5CCOCC5)c([N+](=O)[O-])c4)c(Oc4cnc5[nH]ccc5c4)c3)CC2)=C(c2ccc(Cl)cc2)C1 [Venetoclax], the “combination Emax” value in the assay on U-698-M [1] (setting [5]) is 0.192. The Bliss excess in the assay on U-698-M [2] (setting [5]) was -0.0064.

In the case of `O=C(c1cc(Cc2n[nH]c(=O)c3ccccc23)ccc1F)N1CCN(C(=O)C2CC2)CC1` [Olaparib] + CN(CC[C@H](CSC1=CC=CC=C1)NC2=C(C=C(C=C2)S(=O)(=O)NC(=O)C3=CC=C(C=C3)N4CCC(CC4)[C@H](C5=CC=CC=C5C6=CC=C(C=C6)Cl)O)S(=O)(=O)C(F)(F)F)CCO [AZD4320], in the assay on U-698-M [1] (setting [5]), the “combination Emax” value is 0.135. In the assay on U-698-M [2] (setting [5]), the Bliss excess was -0.0494.

On to `O=C(c1cc(Cc2n[nH]c(=O)c3ccccc23)ccc1F)N1CCN(C(=O)C2CC2)CC1` [Olaparib] + COc1nnc2ccc(N3CCC(c4ccc(OCCN5CCN(C)C(=O)[C@H]5C)cc4)CC3)nn12 [AZD5153], for which the “combination Emax” value in the assay with U-698-M [1] (setting [5]) is 0.578. The Bliss excess in the assay with U-698-M [2] (setting [5]) is -0.0374.

`O=C(c1cc(Cc2n[nH]c(=O)c3ccccc23)ccc1F)N1CCN(C(=O)C2CC2)CC1` [Olaparib] + Cc1c2c(nn1C)CSCc1cc(n(C)n1)CSc1cc(c3ccccc3c1)OCCCc1c(C(=O)O)n(C)c3c-2c(Cl)ccc13 [AZD5991]: the “combination Emax” value in the assay with U-698-M [1] (setting [5]) is 0.987. Besides, in the assay on U-698-M [2] (setting [5]), the Bliss excess worked out at 0.0244.

Regarding `CC(=O)c1c(C)c2cnc(Nc3ccc(N4CCNCC4)cn3)nc2n(C2CCCC2)c1=O` [Palbociclib] + CC1(C)CCC(CN2CCN(c3ccc(C(=O)NS(=O)(=O)c4ccc(NCC5CCOCC5)c([N+](=O)[O-])c4)c(Oc4cnc5[nH]ccc5c4)c3)CC2)=C(c2ccc(Cl)cc2)C1 [Venetoclax], the “combination Emax” value in the assay on U-698-M [1] (setting [5]) turned out to be 0.548. The Bliss excess in the assay with U-698-M [2] (setting [5]) was -0.0676.

Take `CC(=O)c1c(C)c2cnc(Nc3ccc(N4CCNCC4)cn3)nc2n(C2CCCC2)c1=O` [Palbociclib] + Cc1c2c(nn1C)CSCc1cc(n(C)n1)CSc1cc(c3ccccc3c1)OCCCc1c(C(=O)O)n(C)c3c-2c(Cl)ccc13 [AZD5991]: in the assay on U-698-M [1] (setting [5]), the “combination Emax” value stood at 0.98. Also, the Bliss excess in the assay on U-698-M [2] (setting [5]) was -0.0228.

Regarding `CC(=O)c1c(C)c2cnc(Nc3ccc(N4CCNCC4)cn3)nc2n(C2CCCC2)c1=O` [Palbociclib] + Cn1cnc2c(F)c(Nc3ccc(Br)cc3Cl)c(C(=O)NOCCO)cc21 [Selumetinib], the “combination Emax” value in the assay on U-698-M [1] (setting [3]) was 0.583. Moreover, the Bliss excess in the assay on U-698-M [2] (setting [3]) was -0.0483.
